Experimental data published in ChEMBL document CHEMBL4507289, “Data for DCP probe GSM1” (2021).

Key:
[1] = biological target: AP2-associated protein kinase 1 (Homo sapiens) (UniProt Q2M2I8); settings: Compound concentration 1000.0 nM
[2] = biological target: Activin receptor type-2B (Homo sapiens) (UniProt Q13705); settings: Compound concentration 1000.0 nM
[3] = biological target: Activin receptor type-1-like (Homo sapiens) (UniProt P37023); settings: Compound concentration 1000.0 nM
[4] = biological target: 5'-AMP-activated protein kinase catalytic subunit alpha-2 (Homo sapiens) (UniProt P54646); settings: Compound concentration 1000.0 nM
[5] = biological target: Serine/threonine-protein kinase B-raf (Homo sapiens) (UniProt P15056); settings: Compound concentration 1000.0 nM
[6] = biological target: Peripheral plasma membrane protein CASK (Homo sapiens) (UniProt O14936); settings: Compound concentration 1000.0 nM
[7] = biological target: Cyclin-dependent kinase 3 (Homo sapiens) (UniProt Q00526); settings: Compound concentration 1000.0 nM
[8] = biological target: Cyclin-dependent kinase 5 (Homo sapiens) (UniProt Q00535); settings: Compound concentration 1000.0 nM
[9] = biological target: Dual specificity protein kinase CLK2 (Homo sapiens) (UniProt P49760); settings: Compound concentration 1000.0 nM
[10] = biological target: Casein kinase II subunit alpha' (Homo sapiens) (UniProt P19784); settings: Compound concentration 1000.0 nM
[11] = biological target: Ephrin type-A receptor 5 (Homo sapiens) (UniProt P54756); settings: Compound concentration 1000.0 nM
[12] = biological target: Mitogen-activated protein kinase 1 (Homo sapiens) (UniProt P28482); settings: Compound concentration 1000.0 nM
[13] = biological target: Mitogen-activated protein kinase 7 (Homo sapiens) (UniProt Q13164); settings: Compound concentration 1000.0 nM
[14] = biological target: Tyrosine-protein kinase Fes/Fps (Homo sapiens) (UniProt P07332); settings: Compound concentration 1000.0 nM
[15] = biological target: Vascular endothelial growth factor receptor 3 (Homo sapiens) (UniProt P35916); settings: Compound concentration 1000.0 nM
[16] = biological target: Mast/stem cell growth factor receptor Kit (Homo sapiens) (UniProt P10721); settings: Compound concentration 1000.0 nM
[17] = biological target: LIM domain kinase 2 (Homo sapiens) (UniProt P53671); settings: Compound concentration 1000.0 nM
[18] = biological target: Mitogen-activated protein kinase kinase kinase 15 (Homo sapiens) (UniProt Q6ZN16); settings: Compound concentration 1000.0 nM
[19] = biological target: Mitogen-activated protein kinase kinase kinase kinase 5 (Homo sapiens) (UniProt Q9Y4K4); settings: Compound concentration 1000.0 nM
[20] = biological target: Tyrosine-protein kinase Mer (Homo sapiens) (UniProt Q12866); settings: Compound concentration 1000.0 nM
[21] = biological target: Myosin light chain kinase 2, skeletal/cardiac muscle (Homo sapiens) (UniProt Q9H1R3); settings: Compound concentration 1000.0 nM
[22] = biological target: Serine/threonine-protein kinase Nek11 (Homo sapiens) (UniProt Q8NG66); settings: Compound concentration 1000.0 nM
[23] = biological target: Serine/threonine-protein kinase Nek2 (Homo sapiens) (UniProt P51955); settings: Compound concentration 1000.0 nM
[24] = biological target: Serine/threonine-protein kinase Nek9 (Homo sapiens) (UniProt Q8TD19); settings: Compound concentration 1000.0 nM
[25] = biological target: Serine/threonine-protein kinase PAK 2 (Homo sapiens) (UniProt Q13177); settings: Compound concentration 1000.0 nM
[26] = biological target: Serine/threonine-protein kinase PAK 4 (Homo sapiens) (UniProt O96013); settings: Compound concentration 1000.0 nM
[27] = biological target: Serine/threonine-protein kinase PAK 5 (Homo sapiens) (UniProt Q9P286); settings: Compound concentration 1000.0 nM
[28] = biological target: Cyclin-dependent kinase 17 (Homo sapiens) (UniProt Q00537); settings: Compound concentration 1000.0 nM
[29] = biological target: Calcium-dependent protein kinase 1 (Plasmodium falciparum) (UniProt P62344); settings: Compound concentration 1000.0 nM
[30] = system: Phosphatidylinositol 4,5-bisphosphate 3-kinase catalytic subunit alpha isoform (Homo sapiens), P42336 [H1047Y]; settings: Compound concentration 1000.0 nM
[31] = biological target: Phosphatidylinositol 4-phosphate 5-kinase type-1 alpha (Homo sapiens) (UniProt Q99755); settings: Compound concentration 1000.0 nM
[32] = biological target: cAMP-dependent protein kinase catalytic subunit beta (Homo sapiens) (UniProt P22694); settings: Compound concentration 1000.0 nM
[33] = biological target: Serine/threonine-protein kinase D2 (Homo sapiens) (UniProt Q9BZL6); settings: Compound concentration 1000.0 nM
[34] = biological target: Serine/threonine-protein kinase PRP4 homolog (Homo sapiens) (UniProt Q13523); settings: Compound concentration 1000.0 nM
[35] = system: Proto-oncogene tyrosine-protein kinase receptor Ret (Homo sapiens), P07949 [M918T]; settings: Compound concentration 1000.0 nM
[36] = biological target: Dual serine/threonine and tyrosine protein kinase (Homo sapiens) (UniProt Q6XUX3); settings: Compound concentration 1000.0 nM
[37] = biological target: Uncharacterized serine/threonine-protein kinase SBK3 (Homo sapiens) (UniProt P0C264); settings: Compound concentration 1000.0 nM
[38] = biological target: Serine/threonine-protein kinase 36 (Homo sapiens) (UniProt Q9NRP7); settings: Compound concentration 1000.0 nM
[39] = biological target: Tyrosine-protein kinase receptor TYRO3 (Homo sapiens) (UniProt Q06418); settings: Compound concentration 1000.0 nM
[40] = biological target: Vascular endothelial growth factor receptor 2 (Homo sapiens) (UniProt P35968); settings: Compound concentration 1000.0 nM
[41] = biological target: 5-hydroxytryptamine receptor 5A (Homo sapiens) (UniProt P47898); settings: Compound concentration 10.0 uM
[42] = biological target: Mu-type opioid receptor (Homo sapiens) (UniProt P35372); settings: Compound concentration 10.0 uM
[43] = biological target: Muscarinic acetylcholine receptor M3 (Homo sapiens) (UniProt P20309); settings: Compound concentration 10.0 uM
[44] = biological target: Muscarinic acetylcholine receptor M4 (Homo sapiens) (UniProt P08173); settings: Compound concentration 10.0 uM
[45] = biological target: Muscarinic acetylcholine receptor M5 (Homo sapiens) (UniProt P08912); settings: Compound concentration 10.0 uM

Tyrosine-protein kinase Mer (Homo sapiens), sequence (Q12866 whole entry): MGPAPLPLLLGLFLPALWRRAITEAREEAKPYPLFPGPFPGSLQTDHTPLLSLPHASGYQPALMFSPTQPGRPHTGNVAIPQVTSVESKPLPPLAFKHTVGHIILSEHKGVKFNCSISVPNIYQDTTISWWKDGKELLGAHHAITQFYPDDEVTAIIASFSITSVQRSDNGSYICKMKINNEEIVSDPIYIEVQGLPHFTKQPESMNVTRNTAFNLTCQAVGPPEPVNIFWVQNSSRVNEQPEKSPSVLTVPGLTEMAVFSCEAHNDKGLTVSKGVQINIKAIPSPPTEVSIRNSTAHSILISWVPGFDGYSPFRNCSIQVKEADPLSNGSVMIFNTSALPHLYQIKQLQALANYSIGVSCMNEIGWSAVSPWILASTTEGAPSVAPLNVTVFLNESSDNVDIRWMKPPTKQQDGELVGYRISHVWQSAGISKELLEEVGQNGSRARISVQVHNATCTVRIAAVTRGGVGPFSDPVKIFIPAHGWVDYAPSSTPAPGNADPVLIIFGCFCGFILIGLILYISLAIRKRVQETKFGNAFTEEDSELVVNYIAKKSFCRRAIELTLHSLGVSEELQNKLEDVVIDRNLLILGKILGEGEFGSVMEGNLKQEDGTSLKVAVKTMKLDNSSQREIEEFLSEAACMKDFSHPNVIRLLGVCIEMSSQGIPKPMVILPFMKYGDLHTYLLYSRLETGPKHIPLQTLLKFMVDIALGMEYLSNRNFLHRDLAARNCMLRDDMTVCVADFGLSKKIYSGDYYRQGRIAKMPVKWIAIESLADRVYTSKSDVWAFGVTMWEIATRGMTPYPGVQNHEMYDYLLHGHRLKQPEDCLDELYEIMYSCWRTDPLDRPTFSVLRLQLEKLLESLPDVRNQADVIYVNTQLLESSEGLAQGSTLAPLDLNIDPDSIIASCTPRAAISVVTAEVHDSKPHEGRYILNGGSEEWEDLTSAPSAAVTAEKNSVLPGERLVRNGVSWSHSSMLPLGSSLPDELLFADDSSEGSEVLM
Serine/threonine-protein kinase PAK 5 (Homo sapiens), sequence (Q9P286 whole entry, looked up): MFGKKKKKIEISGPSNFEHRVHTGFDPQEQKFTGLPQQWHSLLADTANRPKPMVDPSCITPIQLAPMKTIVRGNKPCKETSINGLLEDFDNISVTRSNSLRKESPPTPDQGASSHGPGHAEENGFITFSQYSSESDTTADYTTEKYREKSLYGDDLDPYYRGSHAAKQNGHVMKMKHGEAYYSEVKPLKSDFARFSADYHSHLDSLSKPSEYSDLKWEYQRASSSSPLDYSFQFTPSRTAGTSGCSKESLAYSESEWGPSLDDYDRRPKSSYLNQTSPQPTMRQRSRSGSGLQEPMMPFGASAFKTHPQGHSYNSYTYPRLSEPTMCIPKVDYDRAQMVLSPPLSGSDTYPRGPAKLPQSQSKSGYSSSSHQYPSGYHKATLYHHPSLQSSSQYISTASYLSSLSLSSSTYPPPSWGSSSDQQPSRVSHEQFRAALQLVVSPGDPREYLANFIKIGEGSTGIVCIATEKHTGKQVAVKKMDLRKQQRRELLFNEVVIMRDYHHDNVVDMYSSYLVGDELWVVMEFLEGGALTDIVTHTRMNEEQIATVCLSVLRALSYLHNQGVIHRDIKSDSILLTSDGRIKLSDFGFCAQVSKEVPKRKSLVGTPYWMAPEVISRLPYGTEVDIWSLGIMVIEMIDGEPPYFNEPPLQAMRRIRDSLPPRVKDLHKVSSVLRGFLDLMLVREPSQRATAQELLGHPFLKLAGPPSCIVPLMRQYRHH
Serine/threonine-protein kinase Nek11 (Homo sapiens), sequence (Q8NG66 whole entry): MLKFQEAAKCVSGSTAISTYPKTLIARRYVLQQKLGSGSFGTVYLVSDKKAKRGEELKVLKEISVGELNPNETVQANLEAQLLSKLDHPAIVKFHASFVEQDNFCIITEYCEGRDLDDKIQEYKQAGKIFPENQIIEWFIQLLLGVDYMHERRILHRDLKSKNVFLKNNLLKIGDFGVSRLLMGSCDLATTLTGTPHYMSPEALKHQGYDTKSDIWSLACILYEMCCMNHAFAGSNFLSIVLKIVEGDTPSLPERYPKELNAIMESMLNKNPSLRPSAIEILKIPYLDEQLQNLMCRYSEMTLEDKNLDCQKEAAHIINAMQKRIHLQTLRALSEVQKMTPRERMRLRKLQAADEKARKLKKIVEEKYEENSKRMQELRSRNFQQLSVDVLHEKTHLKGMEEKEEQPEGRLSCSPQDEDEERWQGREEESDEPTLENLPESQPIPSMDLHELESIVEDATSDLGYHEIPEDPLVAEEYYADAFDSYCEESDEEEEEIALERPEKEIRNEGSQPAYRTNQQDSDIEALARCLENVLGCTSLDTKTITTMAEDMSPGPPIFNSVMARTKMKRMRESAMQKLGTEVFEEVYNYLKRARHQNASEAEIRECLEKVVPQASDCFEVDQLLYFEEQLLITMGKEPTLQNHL
Tyrosine-protein kinase Fes/Fps (Homo sapiens), sequence (P07332 whole entry): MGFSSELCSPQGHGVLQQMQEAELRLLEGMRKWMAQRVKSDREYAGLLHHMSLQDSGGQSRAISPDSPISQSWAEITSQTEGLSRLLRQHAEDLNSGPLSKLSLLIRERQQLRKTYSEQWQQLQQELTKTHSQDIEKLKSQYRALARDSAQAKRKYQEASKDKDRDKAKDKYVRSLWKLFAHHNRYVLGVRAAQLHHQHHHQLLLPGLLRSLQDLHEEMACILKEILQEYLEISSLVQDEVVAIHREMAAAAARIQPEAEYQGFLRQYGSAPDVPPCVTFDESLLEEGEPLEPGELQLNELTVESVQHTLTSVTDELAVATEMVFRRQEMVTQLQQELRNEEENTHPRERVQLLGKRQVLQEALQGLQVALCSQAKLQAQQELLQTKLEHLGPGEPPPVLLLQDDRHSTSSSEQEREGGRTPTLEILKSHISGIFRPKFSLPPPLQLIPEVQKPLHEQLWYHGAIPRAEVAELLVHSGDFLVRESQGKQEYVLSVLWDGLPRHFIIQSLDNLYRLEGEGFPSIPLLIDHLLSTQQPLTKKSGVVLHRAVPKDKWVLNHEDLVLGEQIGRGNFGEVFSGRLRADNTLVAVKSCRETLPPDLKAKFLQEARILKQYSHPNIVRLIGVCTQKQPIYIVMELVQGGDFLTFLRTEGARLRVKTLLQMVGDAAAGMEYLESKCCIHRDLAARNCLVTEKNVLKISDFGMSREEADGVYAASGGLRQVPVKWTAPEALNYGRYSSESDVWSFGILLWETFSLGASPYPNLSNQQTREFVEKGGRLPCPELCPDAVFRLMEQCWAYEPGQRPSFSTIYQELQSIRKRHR
Cyclin-dependent kinase 3 (Homo sapiens), sequence (Q00526 whole entry, looked up): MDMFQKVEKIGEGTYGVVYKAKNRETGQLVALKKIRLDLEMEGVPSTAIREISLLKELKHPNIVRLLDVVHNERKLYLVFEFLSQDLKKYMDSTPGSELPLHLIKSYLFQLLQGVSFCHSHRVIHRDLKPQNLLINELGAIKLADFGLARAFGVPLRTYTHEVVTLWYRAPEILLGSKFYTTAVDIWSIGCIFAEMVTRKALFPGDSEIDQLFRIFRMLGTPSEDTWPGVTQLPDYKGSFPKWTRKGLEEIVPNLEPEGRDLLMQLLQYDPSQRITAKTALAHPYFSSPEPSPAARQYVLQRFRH
Serine/threonine-protein kinase PRP4 homolog (Homo sapiens), sequence (Q13523 whole entry): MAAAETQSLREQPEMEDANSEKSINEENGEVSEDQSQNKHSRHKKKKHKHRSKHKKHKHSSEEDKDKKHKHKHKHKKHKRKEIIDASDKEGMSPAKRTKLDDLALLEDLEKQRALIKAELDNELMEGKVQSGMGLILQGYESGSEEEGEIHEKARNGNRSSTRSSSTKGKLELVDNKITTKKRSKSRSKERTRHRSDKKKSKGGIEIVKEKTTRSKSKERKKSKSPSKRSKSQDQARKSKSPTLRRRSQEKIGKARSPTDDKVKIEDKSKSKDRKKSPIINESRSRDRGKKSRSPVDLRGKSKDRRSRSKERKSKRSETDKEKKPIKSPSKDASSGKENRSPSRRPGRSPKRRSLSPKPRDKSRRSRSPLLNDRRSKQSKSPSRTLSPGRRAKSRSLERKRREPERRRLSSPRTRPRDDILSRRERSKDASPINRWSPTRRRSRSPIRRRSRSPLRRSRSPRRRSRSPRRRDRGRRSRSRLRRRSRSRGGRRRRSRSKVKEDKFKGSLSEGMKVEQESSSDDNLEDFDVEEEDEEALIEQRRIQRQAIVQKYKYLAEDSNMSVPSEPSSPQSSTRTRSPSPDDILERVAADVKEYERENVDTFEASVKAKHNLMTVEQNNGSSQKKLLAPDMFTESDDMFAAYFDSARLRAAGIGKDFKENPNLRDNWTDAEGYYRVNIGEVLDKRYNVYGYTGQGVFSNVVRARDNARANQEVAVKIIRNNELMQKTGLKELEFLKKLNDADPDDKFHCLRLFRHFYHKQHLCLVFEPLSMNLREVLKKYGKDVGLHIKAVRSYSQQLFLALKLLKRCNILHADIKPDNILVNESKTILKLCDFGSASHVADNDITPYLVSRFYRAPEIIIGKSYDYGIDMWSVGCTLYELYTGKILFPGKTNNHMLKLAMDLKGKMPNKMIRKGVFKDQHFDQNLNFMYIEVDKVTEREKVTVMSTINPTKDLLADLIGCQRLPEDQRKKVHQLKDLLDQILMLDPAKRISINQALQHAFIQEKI
Calcium-dependent protein kinase 1 (Plasmodium falciparum), sequence (P62344 2-524 limits assumed): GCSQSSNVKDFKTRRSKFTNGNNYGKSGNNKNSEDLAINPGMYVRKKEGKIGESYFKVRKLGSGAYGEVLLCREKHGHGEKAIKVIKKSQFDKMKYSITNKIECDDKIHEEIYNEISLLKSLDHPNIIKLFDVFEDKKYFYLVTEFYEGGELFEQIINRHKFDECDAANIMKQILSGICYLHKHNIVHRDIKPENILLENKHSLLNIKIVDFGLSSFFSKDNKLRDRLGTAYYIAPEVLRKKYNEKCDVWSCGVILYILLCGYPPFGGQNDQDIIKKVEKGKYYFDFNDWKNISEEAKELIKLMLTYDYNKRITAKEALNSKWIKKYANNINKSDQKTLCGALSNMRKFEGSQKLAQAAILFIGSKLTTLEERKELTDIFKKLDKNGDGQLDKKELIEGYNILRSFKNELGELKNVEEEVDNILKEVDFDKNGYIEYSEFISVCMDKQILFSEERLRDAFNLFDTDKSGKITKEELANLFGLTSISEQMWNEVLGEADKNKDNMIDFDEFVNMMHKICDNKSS

SMILES: COc1cc(-c2cn([C@H]3CCc4ccccc4N(CC(F)(F)F)C3=O)nn2)ccc1-n1ccc(C)n1
- residual activity [1]: 100%
- residual activity [2]: 100%
- residual activity [3]: 100%
- residual activity [4]: 71%
- residual activity [5]: 100%
- residual activity [6]: 80%
- residual activity [7]: 100%
- residual activity [8]: 100%
- residual activity [9]: 100%
- residual activity [10]: 84%
- residual activity [11]: 100%
- residual activity [12]: 100%
- residual activity [13]: 100%
- residual activity [14]: 100%
- residual activity [15]: 100%
- residual activity [16]: 96%
- residual activity [17]: 100%
- residual activity [18]: 84%
- residual activity [19]: 100%
- residual activity [20]: 100%
- residual activity [21]: 73%
- residual activity [22]: 99%
- residual activity [23]: 100%
- residual activity [24]: 100%
- residual activity [25]: 100%
- residual activity [26]: 100%
- residual activity [27]: 96%
- residual activity [28]: 100%
- residual activity [29]: 99%
- residual activity [30]: 100%
- residual activity [31]: 96%
- residual activity [32]: 81%
- residual activity [33]: 86%
- residual activity [34]: 93%
- residual activity [35]: 100%
- residual activity [36]: 100%
- residual activity [37]: 92%
- residual activity [38]: 79%
- residual activity [39]: 100%
- residual activity [40]: 79%
- inhibition [41]: 9.69%
- inhibition [42]: 5.55%
- inhibition [43]: -6.94%
- inhibition [44]: 6.94%
- inhibition [45]: 0.39%

SMILES: COc1cc(-c2cn([C@H]3CCc4c(F)cccc4N(CC(F)(F)F)C3=O)nn2)ccc1-n1cnc(C)c1
- residual activity [1]: 100%
- residual activity [2]: 100%
- residual activity [3]: 100%
- residual activity [4]: 100%
- residual activity [5]: 100%
- residual activity [6]: 71%
- residual activity [7]: 100%
- residual activity [8]: 100%
- residual activity [9]: 100%
- residual activity [10]: 100%
- residual activity [11]: 100%
- residual activity [12]: 100%
- residual activity [13]: 80%
- residual activity [14]: 100%
- residual activity [15]: 100%
- residual activity [16]: 100%
- residual activity [17]: 100%
- residual activity [18]: 100%
- residual activity [19]: 5.8%
- residual activity [20]: 100%
- residual activity [21]: 100%
- residual activity [22]: 100%
- residual activity [23]: 100%
- residual activity [24]: 100%
- residual activity [25]: 91%
- residual activity [26]: 99%
- residual activity [27]: 93%
- residual activity [28]: 84%
- residual activity [29]: 100%
- residual activity [30]: 100%
- residual activity [31]: 100%
- residual activity [32]: 95%
- residual activity [33]: 100%
- residual activity [34]: 100%
- residual activity [35]: 100%
- residual activity [36]: 100%
- residual activity [37]: 100%
- residual activity [38]: 100%
- residual activity [39]: 100%
- residual activity [40]: 100%
- inhibition [41]: 7.61%
- inhibition [42]: 30.2%
- inhibition [43]: -4.42%
- inhibition [44]: 26.2%
- inhibition [45]: 26.1%
